#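 Step 1: Grow cells in 96-well plates. Step 2: Expose to compound for 48 hours at 5 concentrations. Step 3: Interpolate endpoints linearly; if unreached, use highest concentration. TGI is the concentration that stops growth completely.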
# Columns and labels:
# Experiment in all cases: growth of human tumour cells (NCI), 48 h
# NCI-H460 lung = test system: NCI-H460 lung
# OVCAR-4 ovarian = test system: OVCAR-4 ovarian
# PC-3 prostate = test system: PC-3 prostate
# NCI-H226 lung = test system: NCI-H226 lung
# MCF7 breast = test system: MCF7 breast
# IGROV1 ovarian = test system: IGROV1 ovarian
# BT-549 breast = test system: BT-549 breast
# SK-MEL-28 melanoma = test system: SK-MEL-28 melanoma
# OVCAR-5 ovarian = test system: OVCAR-5 ovarian
# SF-268 CNS = test system: SF-268 CNS
# HOP-92 NSCLC = test system: HOP-92 NSCLC
Structure (SMILES),TGI (NCI-H460 lung),TGI (OVCAR-4 ovarian),TGI (PC-3 prostate),TGI (NCI-H226 lung),TGI (MCF7 breast),TGI (IGROV1 ovarian),TGI (BT-549 breast),TGI (SK-MEL-28 melanoma),TGI (OVCAR-5 ovarian),TGI (SF-268 CNS),TGI (HOP-92 NSCLC)
S=C1SC(c2ccc(Cl)cc2)(c2ccc(Cl)cc2)c2ccccc21,> 100 µM,> 100 µM,> 100 µM,> 100 µM,> 100 µM,> 100 µM,> 100 µM,> 100 µM,> 100 µM,> 100 µM,> 100 µM
Cc1ccc(C)c(NC(=O)C(Cc2c[nH]c3ccccc23)NC(=O)OCc2ccccc2)c1 (stereo not given),44 µM,25 µM,28.6 µM,–,> 100 µM,70.8 µM,44.8 µM,> 100 µM,> 100 µM,> 100 µM,57.5 µM
CCOC1SC(SC)=NN1C(=O)C(OC(C)=O)C(OC(C)=O)C(OC(C)=O)C(OC(C)=O)C(=O)N1N=C(SC)SC1OCC (stereo not given),> 100 µM,> 100 µM,> 100 µM,> 100 µM,> 100 µM,> 100 µM,> 100 µM,> 100 µM,> 100 µM,> 100 µM,> 100 µM
CC1(C)OC(=S)N(c2ccccc2)C12C=Cc1cc3ccccc3cc1O2 (stereo not given),> 100 µM,> 100 µM,> 100 µM,> 100 µM,> 100 µM,> 100 µM,> 100 µM,> 100 µM,> 100 µM,> 100 µM,> 100 µM
CC(=O)OCc1cn(S(=O)(=O)c2ccc(C)cc2)cn1,> 100 µM,> 100 µM,> 100 µM,> 100 µM,> 100 µM,> 100 µM,> 100 µM,> 100 µM,–,97.5 µM,> 100 µM
Cn1cnc([N+](=O)[O-])c1Sc1nc(N)nc2c1ncn2Cc1ccccc1,34.7 µM,> 100 µM,36.3 µM,60.2 µM,> 100 µM,> 100 µM,57.2 µM,42.5 µM,63.1 µM,44.6 µM,35.9 µM
CC1Cc2cc(O)ccc2C2[C@@H]1C1CC[C@H](O)[C@@]1(C)C[C@@H]2O[N+](=O)[O-] (stereo not given in full),> 95.7 µM,> 100 µM,> 100 µM,> 100 µM,25.3 µM,> 100 µM,48.9 µM,81.8 µM,> 100 µM,> 93.1 µM,97.6 µM
Cc1nn(C)c2c1C(=O)N(C)CC(=O)N2C,> 100 µM,> 100 µM,> 100 µM,–,> 100 µM,> 100 µM,> 100 µM,> 100 µM,> 100 µM,> 100 µM,> 100 µM
O=C(O)c1cc(Sc2ccc([N+](=O)[O-])c(C(=O)O)c2)ccc1[N+](=O)[O-],> 100 µM,> 100 µM,> 100 µM,> 100 µM,> 100 µM,> 100 µM,> 100 µM,> 100 µM,> 100 µM,> 100 µM,> 100 µM
COc1cccc(-n2c(N)c(-c3nc4cc(C(F)(F)F)ccc4s3)c3ccc([N+](=O)[O-])cc3c2=O)c1,> 100 µM,> 100 µM,> 100 µM,> 100 µM,> 100 µM,–,> 100 µM,> 100 µM,> 100 µM,> 100 µM,> 100 µM
CCCCCCCC/C=C/CCCCCCCC1CC(O)C(=O)O1 (stereo not given),> 100 µM,> 100 µM,> 100 µM,> 100 µM,> 100 µM,> 100 µM,> 100 µM,> 100 µM,> 100 µM,> 100 µM,90.9 µM
CC(=O)O[C@H]1[C@@H](N2CCN(C)CC2)C[C@H]2[C@@H]3CC=C4C[C@@H](N5CCCC5)CC[C@]4(C)[C@H]3CC[C@@]21C,> 100 µM,> 100 µM,> 100 µM,> 100 µM,> 100 µM,> 100 µM,> 100 µM,96.9 µM,> 100 µM,> 100 µM,> 100 µM
CC(NC(=O)C(N)CC(=O)O)NC(=O)N1CCCC1 (stereo not given),> 100 µM,> 100 µM,> 100 µM,> 100 µM,> 100 µM,> 100 µM,> 100 µM,> 100 µM,> 100 µM,> 100 µM,> 100 µM
CCCCOC(=O)C1CN2C(=NC1(C(F)(F)F)C(F)(F)F)Sc1ccccc12 (stereo not given),> 100 µM,> 100 µM,42.4 µM,> 100 µM,> 100 µM,> 100 µM,> 100 µM,> 100 µM,> 100 µM,> 100 µM,> 100 µM
COC(=O)c1scc(N)c1-n1ccc(=O)[nH]c1=O,> 100 µM,> 100 µM,> 100 µM,> 100 µM,> 100 µM,> 100 µM,> 100 µM,> 100 µM,> 100 µM,> 100 µM,> 100 µM
Cc1nc(C)c(N2CCN(C#N)CC2)c(=O)[nH]1,> 100 µM,> 100 µM,> 100 µM,> 100 µM,> 100 µM,> 100 µM,> 100 µM,> 100 µM,–,> 100 µM,> 100 µM
O=C1OC(c2ccccc2)N/C1=C\c1ccc2c(c1)OCO2 (stereo not given),> 100 µM,> 88 µM,> 100 µM,> 100 µM,> 100 µM,> 100 µM,> 100 µM,> 100 µM,> 100 µM,> 100 µM,> 100 µM
CC(C)=CCC[C@H](C)[C@H]1CC[C@@H](C)c2cc(O)c(C)cc21,33.7 µM,31.5 µM,31.3 µM,33.3 µM,32.5 µM,31.4 µM,32.7 µM,36.8 µM,30.7 µM,31.2 µM,32.2 µM

Structure (SMILES),TGI (NCI-H460 lung),TGI (OVCAR-4 ovarian),TGI (PC-3 prostate),TGI (NCI-H226 lung),TGI (MCF7 breast),TGI (IGROV1 ovarian),TGI (BT-549 breast),TGI (SK-MEL-28 melanoma),TGI (OVCAR-5 ovarian),TGI (SF-268 CNS),TGI (HOP-92 NSCLC)
O=C(/C(=C/c1cccs1)c1ccccc1)c1ccccc1,> 100 µM,> 100 µM,> 100 µM,> 100 µM,> 100 µM,> 100 µM,> 100 µM,> 100 µM,> 100 µM,> 100 µM,> 100 µM
CC1(C)CC[C@]2(C(=O)O)CC[C@]3(C)C(=CC[C@@H]4[C@@]5(C)CC[C@H](OC6OC(CO)C(O)C(O)C6OC6OC(CO)C(O)C(O)C6O)C(C)(C)[C@@H]5CC[C@]43C)[C@@H]2C1 (stereo not given in full),41.5 µM,30.5 µM,31.2 µM,34.7 µM,36.7 µM,34.6 µM,36.2 µM,28.9 µM,12.5 µM,32 µM,31.7 µM
CCn1cnc2c(NC(C)=O)ncnc21,> 100 µM,> 100 µM,> 100 µM,> 100 µM,> 100 µM,> 100 µM,> 100 µM,> 100 µM,> 100 µM,–,> 100 µM
O=C(N/C(=C\c1ccccc1)C1Nc2ccccc2C(=O)O1)c1ccccc1 (stereo not given),35.5 µM,> 100 µM,> 100 µM,> 100 µM,> 100 µM,> 100 µM,62.2 µM,53.2 µM,> 100 µM,> 100 µM,> 100 µM
Cc1cccc(NC(=S)N/N=C(/c2ccccc2)c2ccccn2)c1,8.91 µM,17.2 µM,18.3 µM,6 µM,0.663 µM,16.7 µM,17 µM,40.5 µM,8.68 µM,12.6 µM,15.7 µM
COc1ccc(-c2nnc(CCCCCCCCc3nnc(-c4ccc(OC)cc4)o3)o2)cc1,> 100 µM,> 100 µM,> 100 µM,> 100 µM,> 100 µM,> 100 µM,59 µM,> 100 µM,> 100 µM,> 100 µM,> 100 µM
CCN(CC)c1nc(N(C)C)c2cc(OC)ccc2n1,> 100 µM,> 100 µM,> 100 µM,60.1 µM,> 100 µM,> 100 µM,> 100 µM,> 100 µM,> 100 µM,91.8 µM,> 100 µM
CC(=O)OC1COC(Nn2c(=O)[nH]c3ccccc3c2=O)C(OC(C)=O)C1OC(C)=O (stereo not given),> 100 µM,–,> 100 µM,> 100 µM,> 100 µM,> 100 µM,> 100 µM,> 100 µM,> 100 µM,> 100 µM,> 100 µM
CN1CCN(c2ccc(-n3cc(C(=O)O)c(=O)c4cc(F)c(N5CCN(C)CC5)cc43)nc2)CC1,> 100 µM,> 100 µM,> 100 µM,> 100 µM,> 100 µM,> 100 µM,> 100 µM,> 100 µM,> 100 µM,> 100 µM,> 100 µM
Cc1n[nH]c(=O)n1N1C(=O)c2ccccc2C1=O,> 100 µM,> 100 µM,> 100 µM,> 100 µM,> 100 µM,> 100 µM,> 100 µM,> 100 µM,> 100 µM,–,> 100 µM
[N-]=[N+]=NC1=C(c2ccccc2)C(=O)c2cccc3cccc1c23,28.7 µM,> 100 µM,> 100 µM,–,> 100 µM,95.2 µM,34.1 µM,> 100 µM,> 100 µM,> 100 µM,91.1 µM
Cc1c2cccc-2c(OCCO)cc2c1[nH]c1ccccc12,18.3 µM,13.5 µM,7.89 µM,21 µM,19.4 µM,8.92 µM,7.34 µM,20.6 µM,5.83 µM,–,> 28.7 µM
C[C@@H]1OC(=O)/C(=C\N(C)C)[C@H]2CC(=O)N(CCc3cn(S(=O)(=O)C(F)(F)F)c4ccccc34)C[C@H]12,> 100 µM,> 100 µM,> 100 µM,> 100 µM,> 100 µM,> 100 µM,> 100 µM,> 100 µM,> 100 µM,> 100 µM,> 100 µM
C=C(C(=O)O)[C@@H]1C[C@@H]2O[C@H]1CC(C)=CCC/C(C)=C/CC[C@@]2(C)O,> 100 µM,> 100 µM,> 100 µM,> 100 µM,> 100 µM,> 100 µM,> 100 µM,> 100 µM,> 100 µM,> 100 µM,> 100 µM
CCN(CC)C1=Nc2ccccc2-n2c(C)cnc2C1,> 100 µM,> 100 µM,> 100 µM,> 100 µM,> 100 µM,> 100 µM,> 100 µM,> 100 µM,> 100 µM,> 100 µM,> 100 µM
C[C@]12CCC(=O)C=C1CC[C@@H]1C2CC[C@]2(C)Nc3c(ncn3-c3ccc(F)cc3)CC12 (stereo not given in full),57.4 µM,> 100 µM,> 100 µM,> 100 µM,74 µM,> 100 µM,59.8 µM,> 100 µM,> 100 µM,> 100 µM,> 100 µM
c1ccc2c(c1)C(=Nc1ccc(N=C3c4ccccc4-c4ccccc43)cc1)c1ccccc1-2,> 100 µM,> 100 µM,> 100 µM,> 100 µM,> 100 µM,> 100 µM,> 100 µM,–,> 100 µM,> 100 µM,> 100 µM
CC1(C)O[C@@H]2[C@@H]3OC(=O)C[C@@H]3[C@@H](COCc3ccccc3)[C@@H]2O1,> 100 µM,> 100 µM,> 100 µM,> 100 µM,> 100 µM,> 100 µM,> 100 µM,> 100 µM,> 100 µM,> 100 µM,> 100 µM
